Assay results as given in patent US20080287445A1, “Prokineticin 2 receptor antagonists” (priority 2005, published 2008).
Several values for one entry are separate records, joined by “and”; a condition that tells them apart may be missing. Equal values may be shown once.

Biological target: T1, GPR73 (prokineticin 1 receptor) (Homo sapiens, UniProt Q8TCW9)
T1 construct: expressed in transfected cells; host or cells: HEK 293
Experiment: PK1 functional assay: Ca2+ mobilization screening for PK1 antagonists on the FLIPR
Assay type: cell-based
Conditions: HEK 293 GPR73 cells, multiple values = multiple testing; for inhibition at 10 µM: HEK293, 10 μM compound, read-out: Ca^2+ Mobilization % Inh @ 10 μM; for IC50: PK1 ligand preparation at its EC50, read-out: Ca^2+ Mobilization IC50; for Ca^2+ Mobilization % Inh @ 10 μM: 10 μM compound
Outline: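 HEK293 cells expressing human GPR73 were loaded with Calcium Plus dye, then on FLIPR given compound for 4 min 15 s before PK1 ligand at its predetermined EC50. Baseline-subtracted fluorescence over 1 min 45 s gave percent inhibition versus maximal signal; IC50 fitted.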

T1 sequence (Q8TCW9 whole entry, species assumed): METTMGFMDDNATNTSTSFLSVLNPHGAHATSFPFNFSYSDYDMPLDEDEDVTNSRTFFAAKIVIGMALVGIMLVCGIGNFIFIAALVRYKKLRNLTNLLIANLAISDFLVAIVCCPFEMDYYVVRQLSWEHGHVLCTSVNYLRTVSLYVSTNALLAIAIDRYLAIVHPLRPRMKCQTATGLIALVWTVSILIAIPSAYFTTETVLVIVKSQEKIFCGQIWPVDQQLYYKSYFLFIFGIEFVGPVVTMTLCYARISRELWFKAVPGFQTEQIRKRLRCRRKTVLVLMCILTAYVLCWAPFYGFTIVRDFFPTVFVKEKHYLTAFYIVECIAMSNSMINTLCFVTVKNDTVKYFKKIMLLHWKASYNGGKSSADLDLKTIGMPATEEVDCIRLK

SMILES | inhibition at 10 µM [%] | IC50 | Ca^2+ Mobilization % Inh @ 10 μM
Cc1cc(C)c(CNc2nc(=O)n(Cc3ccc4occc4c3)c(=O)n2Cc2ccc(OC(F)F)cc2)cn1 [Cpd 178] | 46 | 8650 nM | –
Cc1cc(C)c(CNc2nc(=O)n(Cc3ccc4c(c3)CCO4)c(=O)n2Cc2ccc(OC(F)F)cc2)cn1 [Cpd 179] | 61 | 4530 nM | –
Cc1cc(C)c(CNc2nc(=O)n(Cc3ccccc3C#N)c(=O)n2Cc2ccc(OC(F)F)cc2)cn1 [Cpd 180] | 37 | > 10000 nM | –
Cc1cc(C)c(CNc2nc(=O)n(Cc3ccc(O)cc3)c(=O)n2Cc2ccc(OC(F)F)cc2)cn1 [Cpd 181] | 61 | 3730 nM | –
CC(=O)Oc1ccc(Cn2c(=O)nc(NCc3cnc(C)cc3C)n(Cc3ccc(OC(F)F)cc3)c2=O)cc1 [Cpd 182] | 55 | 8510 nM | –
COc1ccc(Cn2c(CCc3ccncc3)cc(=O)n(Cc3ccc(OC)cc3)c2=O)cc1 [Cpd 183] | 68 | 2460 nM | –
COc1ccc(Cn2c(C=Cc3ccncc3)cc(=O)n(Cc3ccc(OC)cc3)c2=O)cc1 [Cpd 184, 1,3-Bis-(4-methoxy-benzyl)-6-(2-pyridin-4-yl-vinyl)-1H-pyrimidine-2,4-dione] | 65 | 2690 nM | –
Cc1cc(C)c(CNc2nc(=O)n(Cc3ccc4c(c3)CCO4)c(=O)n2Cc2ccc3c(c2)CCO3)c(N)n1 [Cpd 185, 6-[(2-Amino-4,6-dimethyl-pyridin-3-ylmethyl)-amino]-1,3-bis-(2,3-dihydro-benzofuran-5-ylmethyl)-1H-[1,3,5]triazine-2,4-dione] | 92 | 15 nM and 80 nM and 118 nM | 94% and 98%
Cc1cc(C)c(CNc2nc(=O)n(Cc3ccc4occc4c3)c(=O)n2Cc2ccc3c(c2)CCO3)c(N)n1 [Cpd 186] | 99 | 74 nM and 97 nM | 100%
COc1ccc(Cn2c(CCc3ccccn3)cc(=O)n(Cc3ccc(OC)cc3)c2=O)cc1 [Cpd 187] | 41 | > 10000 nM | –
COc1ccc(Cn2c(NCc3cccn4ccnc34)nc(=O)n(Cc3ccc(OC)cc3)c2=O)cc1 [Cpd 188, 6-[(Imidazo[1,2-a]pyridin-8-ylmethyl)-amino]-1,3-bis-(4-methoxy-benzyl)-1H-[1,3,5]triazine-2,4-dione] | 66 | 579 nM | –
COc1ccc(Cn2c(CCc3cccnc3C(N)=O)cc(=O)n(Cc3ccc(OC)cc3)c2=O)cc1 [Cpd 189] | 38 | > 10000 nM | –
COc1ccc(Cn2c(OCc3cccnc3N)cc(=O)n(Cc3ccc(OC)cc3)c2=O)cc1 [Cpd 190] | 79 | 502 nM | –
Cc1cc(C)c(CNc2nc(=O)n(Cc3ccc(CO)cc3)c(=O)n2Cc2ccc(OC(F)F)cc2)cn1 [Cpd 191] | 50 | 8370 nM | –
Cc1cc(C)c(CNc2nc(=O)n(Cc3ccc4c(c3)nnn4C)c(=O)n2Cc2ccc(OC(F)F)cc2)cn1 [Cpd 192] | 80 | 146 nM and 1060 nM | 82%
COc1ccc(Cn2c(=O)nc(NCc3cnc(C)cc3C)n(Cc3ccc(OC(F)F)cc3)c2=O)cc1 [Cpd 193] | – | > 10000 nM | 39%
Cc1cc(C)c(CNc2nc(=O)n(Cc3ccc(C(N)=O)cc3)c(=O)n2Cc2ccc(OC(F)F)cc2)cn1 [Cpd 194] | 49 | 6220 nM | –
Cc1cc(C)c(CNc2nc(=O)n(Cc3ccc4snnc4c3)c(=O)n2Cc2ccc(OC(F)F)cc2)cn1 [Cpd 196] | 84 | 451 nM | –
COCCCCCn1c(=O)nc(NCc2cnc(C)cc2C)n(Cc2ccc(OC)cc2)c1=O [Cpd 197] | 54 | 2840 nM | –
COCCCCCn1c(=O)nc(NCc2cnc(C)cc2C)n(Cc2ccc(OC(F)F)cc2)c1=O [Cpd 198] | 64 | 1040 nM | –

SMILES | inhibition at 10 µM [%] | IC50 | Ca^2+ Mobilization % Inh @ 10 μM
COc1ccc(Cn2c(CCc3cccnc3N)cc(=O)n(Cc3ccc(OC)cc3)c2=O)cc1 [Cpd 199, 6-[2-(2-Amino-pyridin-3-yl)-ethyl]-1,3-bis-(4-methoxy-benzyl)-1H-pyrimidine-2,4-dione] | 92 | 169 nM and 691 nM | 95%
COc1ccc(Cn2c(=O)nc(NCc3cccnc3N)n(Cc3ccc(OC)cc3OC)c2=O)cc1 [Cpd 200] | 87 | 304 nM | –
COc1ccc(Cn2c(NCc3cnccc3C)nc(=O)n(Cc3ccc(OC)cc3)c2=O)cc1 [Cpd 201] | 95 | 327 nM | –
COc1ccc(Cn2c(OCc3c(C)cc(C)nc3N)cc(=O)n(Cc3ccc(OC)cc3)c2=O)cc1 [Cpd 202] | 70 | 830 nM | –
COc1ccc(Cn2c(=O)nc(NCc3cccnc3N)n(Cc3ccc(OC)c(F)c3)c2=O)cc1 [Cpd 203] | 103 | 60 nM | –
COc1ccc(Cn2c(=O)nc(NCc3cnc(C)cc3C)n(Cc3ccc(OC)c(F)c3)c2=O)cc1 [Cpd 204] | 102 | 68 nM | –
COc1ccc(Cn2c(=O)nc(NCc3cccnc3N)n(Cc3ccc(OC)cc3F)c2=O)cc1 [Cpd 205] | 102 | 106 nM | –
COc1ccc(Cn2c(=O)nc(NCc3cnc(C)cc3C)n(Cc3ccc(OC)cc3F)c2=O)cc1 [Cpd 206] | 102 | 46 nM | –
COc1ccc(Cn2c(NCc3cnc(C)cc3C)nc(=O)n(Cc3ccc4c(c3)OCO4)c2=O)cc1 [Cpd 207] | 92 | 461 nM and 471 nM | 93%
Cc1cc(C)c(CNc2nc(=O)n(Cc3ccc4c(c3)OCO4)c(=O)n2Cc2ccc(OC(F)F)cc2)cn1 [Cpd 208] | 73 | 1270 nM | –
COc1ccc(Cn2c(NCc3cnc(C)cc3C)nc(=O)n(Cc3ccc4c(c3)OCCO4)c2=O)cc1 [Cpd 209] | 51 | 7730 nM | –
Cc1cc(C)c(CNc2nc(=O)n(Cc3ccc4c(c3)OCCO4)c(=O)n2Cc2ccc(OC(F)F)cc2)cn1 [Cpd 210] | 39 | > 10000 nM | –
COc1ccc(Cn2c(SCc3cccnc3)cc(=O)n(Cc3ccc(OC)cc3)c2=O)cc1 [Cpd 211, 1,3-Bis-(4-methoxy-benzyl)-6-(pyridin-3-ylmethylsulfanyl)-1H-pyrimidine-2,4-dione] | 52 | 4580 nM | –
COc1ccc(Cn2c(=O)nc(NCc3c(C)cc(C)nc3N)n(Cc3ccc4c(c3)CC(C)O4)c2=O)cc1 (stereo not drawn) [Cpd 212] | 103 | 21 nM and 50 nM | 99%
COc1ccc(Cn2c(NCc3c(C)cc(C)nc3N3CCCCC3)nc(=O)n(Cc3ccc(OC)cc3)c2=O)cc1 [Cpd 213] | 45 | > 10000 nM | –
COc1ccc(Cn2c(CCc3cnccc3N)cc(=O)n(Cc3ccc(OC)cc3)c2=O)cc1 [Cpd 214] | 53 | 7160 nM | –
COc1ccc(Cn2c(NCCc3ccncc3)nc(=O)n(Cc3ccc(OC)cc3)c2=O)cc1 [Cpd 215] | – | 500 nM and 2780 nM | 104% and 68%
COc1ccc(Cn2c(NCc3cnc(C)cc3C)nc(=O)n(Cc3ccc4c(c3)nnn4C)c2=O)cc1 [Cpd 216] | 80 | 1060 nM | –
COc1ccc(Cn2c(NCc3cnc(C)cc3C)nc(=O)n(Cc3ccc4snnc4c3)c2=O)cc1 [Cpd 217] | 81 | 1010 nM | –
